Reference: US7417156B2, “Orally active, antimalarial, anticancer, artemisinin-derived trioxane dimers” (Johns Hopkins University, priority 2002, dated 2008)
Where two headings read alike, the source gives them in different places.

Key:
SN12C = assay: NCI 60 cell line panel screen (SRB); type: cell-based, human
SF-295 = assay: NCI 60 cell line panel screen (SRB); type: cell-based, human; conditions: for Log10GI50: CNS Cancer, SF-295; for Log10LC50 / Log10TGI50: SF-295 (CNS Cancer); for Log10LC50: LC50: PG=−50; for Log10TGI50: TGI: PG=0
HOP-92 = assay: NCI 60 cell line panel screen (SRB); type: cell-based, human; conditions: for Log10LC50 / Log10TGI50: HOP-92 (Non-Small Cell Lung Cancer); for Log10LC50: LC50: PG=−50; for Log10TGI50: TGI: PG=0; for Log10GI50: Non-Small Cell Lung Cancer, HOP-92
OVCAR-5 = assay: NCI 60 cell line panel screen (SRB); type: cell-based, human; conditions: for Log10LC50: LC50: PG=−50; for Log10GI50: Ovarian Cancer, OVCAR-5
A498 = assay: NCI 60 cell line panel screen (SRB); type: cell-based, human
U251 = assay: NCI 60 cell line panel screen (SRB); type: cell-based, human; conditions: for Log10LC50 / Log10TGI50: U251 (CNS Cancer); for Log10LC50: LC50: PG=−50; for Log10TGI50: TGI: PG=0
UACC-62 = assay: NCI 60 cell line panel screen (SRB); type: cell-based, human
ACHN = assay: NCI 60 cell line panel screen (SRB); type: cell-based, human; conditions: for Log10LC50 / Log10TGI50: ACHN (Renal Cancer); for Log10LC50: LC50: PG=−50; for Log10TGI50: TGI: PG=0; for Log10GI50: Renal Cancer, ACHN
SK-MEL-5 = assay: NCI 60 cell line panel screen (SRB); type: cell-based, human
LOX IMVI = assay: NCI 60 cell line panel screen (SRB); type: cell-based, human
NCI-H226 = assay: NCI 60 cell line panel screen (SRB); type: cell-based, human
SW-620 = assay: NCI 60 cell line panel screen (SRB); type: cell-based, human
M14 = assay: NCI 60 cell line panel screen (SRB); type: cell-based, human; conditions: for Log10TGI50: M-14 (Melanoma), TGI: PG=0
SR = assay: NCI 60 cell line panel screen (SRB); type: cell-based, human
OVCAR-4 = assay: NCI 60 cell line panel screen (SRB); type: cell-based, human
HS 578T = assay: NCI 60 cell line panel screen (SRB); type: cell-based, human; conditions: for Log10GI50: Breast Cancer, HS 578T; for Log10LC50 / Log10TGI50: HS 578T (Breast Cancer); for Log10LC50: LC50: PG=−50; for Log10TGI50: TGI: PG=0
MDA-N = assay: NCI 60 cell line panel screen (SRB); type: cell-based, human
DU-145 = assay: NCI 60 cell line panel screen (SRB); type: cell-based, human
SK-OV-3 = assay: NCI 60 cell line panel screen (SRB); type: cell-based, human
SF-268 = assay: NCI 60 cell line panel screen (SRB); type: cell-based, human; conditions: for Log10GI50: CNS Cancer, SF-268; for Log10LC50 / Log10TGI50: SF-268 (CNS Cancer); for Log10LC50: LC50: PG=−50; for Log10TGI50: TGI: PG=0
KM12 = assay: NCI 60 cell line panel screen (SRB); type: cell-based, human; conditions: for Log10GI50: Colon Cancer, KM12; for Log10LC50 / Log10TGI50: KM12 (Colon Cancer); for Log10LC50: LC50: PG=−50; for Log10TGI50: TGI: PG=0
HCC-2998 = assay: NCI 60 cell line panel screen (SRB); type: cell-based, human
[1] = test system: P. berghei NY malaria parasite; assay: Antimalarial efficacies in vivo in mice; conditions: for ED50: Plasmodium berghei, read-out: ED50
From the text: Neither overt toxicity nor behavioral modification was observed due to drug administration in any of these mouse experiments.

[2] = Solubility in water at pH 7.4; type: physicochemical

Work on `CC1CCC2C(C)C(CC(CO)CC3OC4OC5(C)CCC6C(C)CCC(C3C)C46OO5)OC3OC4(C)CCC1C32OO4` (stereo not drawn) [Compound 4, bis-trioxane primary alcohol] yielded a Log10GI50 (SN12C; Renal Cancer, SN12C) of −7.46, a Log10LC50 (SN12C; SN12C (Renal Cancer), LC50: PG=−50) of −4.35 log10M and a Log10TGI50 (SN12C; SN12C (Renal Cancer), TGI: PG=0) of −4.84 log10M. The Log10GI50 (SF-295) was −5.59, the Log10LC50 (SF-295) was −4.39 log10M and the Log10TGI50 (SF-295) was −4.80 log10M. For the same compound, the Log10LC50 (HOP-92) was −4.22 log10M, the Log10TGI50 (HOP-92) was −4.65 log10M and the Log10GI50 (HOP-92) was −6.37. It also gave a Log10LC50 (OVCAR-5; OVCAR-5 (Ovarian Cancer)) of −4.54 log10M, a Log10TGI50 (OVCAR-5; OVCAR-5 (Ovarian Cancer), TGI: PG=0) of −6.42 log10M and a Log10GI50 (OVCAR-5) of −7.79. It also gave a Log10LC50 (A498; A498 (Renal Cancer), LC50: PG=−50) of −4.50 log10M, a Log10TGI50 (A498; A498 (Renal Cancer), TGI: PG=0) of −5.00 log10M and a Log10GI50 (A498; Renal Cancer, A498) of −6.69. For the same compound, the Log10GI50 (U251; CNS Cancer, U251) was −7.27, the Log10LC50 (U251) was >−4.00 log10M and the Log10TGI50 (U251) was −4.47 log10M. The Log10GI50 (UACC-62; Melanoma, UACC-62) was −6.86, the Log10LC50 (UACC-62; UACC-62 (Melanoma), LC50: PG=−50) was −4.29 log10M and the Log10TGI50 (UACC-62; UACC-62 (Melanoma), TGI: PG=0) was −4.74 log10M. For the same compound, the Log10LC50 (ACHN) was −4.30 log10M, the Log10TGI50 (ACHN) was −4.76 log10M and the Log10GI50 (ACHN) was −7.12. It also gave a Log10GI50 (SK-MEL-5; Melanoma, SK-MEL-5) of −7.90, a Log10LC50 (SK-MEL-5; SK-MEL-5 (Melanoma), LC50: PG=−50) of −4.53 log10M and a Log10TGI50 (SK-MEL-5; SK-MEL-5 (Melanoma), TGI: PG=0) of −7.18 log10M. The Log10LC50 (LOX IMVI; LOX IMVI (Melanoma), LC50: PG=−50) was >−4.00 log10M, the Log10TGI50 (LOX IMVI; LOX IMVI (Melanoma), TGI: PG=0) was −4.45 log10M and the Log10GI50 (LOX IMVI; Melanoma, LOX IMVI) was −7.26. For the same compound, the Log10LC50 (NCI-H226; NCI-H226 (Non-Small Cell Lung Cancer), LC50: PG=−50) was >−4.00 log10M, the Log10TGI50 (NCI-H226; NCI-H226 (Non-Small Cell Lung Cancer), TGI: PG=0) was −4.40 log10M and the Log10GI50 (NCI-H226; Non-Small Cell Lung Cancer, NCI-H226) was −4.82. The Log10GI50 (SW-620; Colon Cancer, SW-620) was <−8.00, the Log10LC50 (SW-620; SW-620 (Colon Cancer), LC50: PG=−50) was −4.44 log10M and the Log10TGI50 (SW-620; SW-620 (Colon Cancer), TGI: PG=0) was −4.89 log10M. For the same compound, the Log10LC50 (M14; M14 (Melanoma), LC50: PG=−50) was −4.14 log10M, the Log10TGI50 (M14) was −4.68 log10M and the Log10GI50 (M14; Melanoma, M14) was −5.87. For the same compound, the Log10GI50 (SR; Leukemia, SR) was <−8.00, the Log10LC50 (SR; SR (Leukemia), LC50: PG=−50) was >−4.00 log10M and the Log10TGI50 (SR; SR (Leukemia), TGI: PG=0) was −4.58 log10M. For the same compound, the Log10LC50 (OVCAR-4; OVCAR-4 (Ovarian Cancer), LC50: PG=−50) was −4.16 log10M, the Log10TGI50 (OVCAR-4; OVCAR-4 (Ovarian Cancer), TGI: PG=0) was −4.62 log10M and the Log10GI50 (OVCAR-4; Ovarian Cancer, OVCAR-4) was −5.44. The Log10GI50 (HS 578T) was −4.82, the Log10LC50 (HS 578T) was >−4.00 log10M and the Log10TGI50 (HS 578T) was >−4.00 log10M. For the same compound, the Log10GI50 (MDA-N; Breast Cancer, MDA-N) was −7.54, the Log10LC50 (MDA-N; MDA-N (Breast Cancer), LC50: PG=−50) was −4.45 log10M and the Log10TGI50 (MDA-N; MDA-N (Breast Cancer), TGI: PG=0) was −4.90 log10M. The Log10LC50 (DU-145; DU-145 (Prostate Cancer), LC50: PG=−50) was −4.36 log10M, the Log10TGI50 (DU-145; DU-145 (Prostate Cancer), TGI: PG=0) was −4.72 log10M and the Log10GI50 (DU-145; Prostate Cancer, DU-145) was −6.24. The Log10GI50 (SK-OV-3; Ovarian Cancer, SK-OV-3) was −4.85, the Log10LC50 (SK-OV-3; SK-OV-3 (Ovarian Cancer), LC50: PG=−50) was −4.21 log10M and the Log10TGI50 (SK-OV-3; SK-OV-3 (Ovarian Cancer), TGI: PG=0) was −4.53 log10M. The Log10GI50 (SF-268) was −5.40, the Log10LC50 (SF-268) was −4.23 log10M and the Log10TGI50 (SF-268) was −4.63 log10M. For the same compound, the Log10GI50 (KM12) was <−8.00, the Log10LC50 (KM12) was −4.29 log10M and the Log10TGI50 (KM12) was −4.79 log10M. For the same compound, the Log10GI50 (HCC-2998; Colon Cancer, HCC-2998) was −7.45, the Log10LC50 (HCC-2998; HCC-2998 (Colon Cancer), LC50: PG=−50) was −4.59 log10M and the Log10TGI50 (HCC-2998; HCC-2998 (Colon Cancer), TGI: PG=0) was −5.39 log10M.
Work on `C[C@@H]1CC[C@H]2[C@@H](C)C(CC(O)(COC(=O)CCC(=O)O)CC3OC4O[C@]5(C)CC[C@H]6[C@H](C)CC[C@@H]([C@H]3C)C46OO5)OC3O[C@]4(C)CCC1C32OO4` (stereo partly drawn) [Compound 9, tertiary alcohol primary succinate ester] yielded an ED50 ([1]; route IV) of 2.4 mg/kg, an ED50 ([1]; route PO) of 4.8 mg/kg and an ED90 ([1]; route IV) of 11.0 mg/kg × 4. For the same compound, the “% Parasite Supression at 10 mg/kg” value ([1]; route IV) was 83.4%, the ED90 ([1]; route PO) was 34.0 mg/kg × 4 and the “% Parasite Supression at 10 mg/kg” value ([1]; route PO) was 55.4%. For the same compound, the Log10GI50 (SF-295) was <−8.30, the Log10LC50 (SF-295) was −4.60 log10M and the Log10TGI50 (SF-295) was <−8.30 log10M. For the same compound, the Log10LC50 (HOP-92) was >−4.30 log10M, the Log10TGI50 (HOP-92) was >−4.30 log10M and the Log10GI50 (HOP-92) was <−8.30. The Log10LC50 (OVCAR-5; OVCAR-5 (Ovarian Cancer)) was >−4.30 log10M, the Log10GI50 (OVCAR-5) was <−8.30 and the Log10LC50 (U251) was >−4.30 log10M. For the same compound, the Log10TGI50 (U251) was −4.75 log10M, the Log10LC50 (ACHN) was >−4.30 log10M and the Log10TGI50 (ACHN) was −4.74 log10M. For the same compound, the Log10GI50 (ACHN) was −6.67, the Log10TGI50 (M14) was >−4.30 log10M and the “water solubility relative to artelinic acid” value [2] was ~30 times. For the same compound, the Log10GI50 (HS 578T) was −4.36, the Log10LC50 (HS 578T) was >−4.30 log10M and the Log10TGI50 (HS 578T) was >−4.30 log10M. For the same compound, the Log10GI50 (SF-268) was −5.48, the Log10LC50 (SF-268) was >−4.30 log10M and the Log10TGI50 (SF-268) was >−4.30 log10M. For the same compound, the Log10GI50 (KM12) was <−8.30, the Log10LC50 (KM12) was −4.36 log10M and the Log10TGI50 (KM12) was <−8.30 log10M.
